Results reported in ChEMBL document CHEMBL4680206, “Novel pyrrolidinone derivative lacks claimed histamine H receptor stimulation in receptor binding and functional studies” (Eur J Med Chem, 2020).
One block for each compound: values may come before it. The source made the active and inactive calls. The rule behind the calls is not given here.

Tests used:
Histamine H3 receptor [1] = target: T1, Histamine H3 receptor (Homo sapiens, UniProt Q9Y5N1); test: Agonist activity at human H3 receptor expressed in CHO cells assessed as […] by measuring reduction in forskolin level incubated for 4 hrs by CRE/MRE-luciferase reporter gene assay; assay type: functional, cell-based
Histamine H3 receptor [2] = target: T1, Histamine H3 receptor; test: Displacement of [3H]Nalpha-methylhistamine from recombinant human histamine H3 receptor stably transfected in HEK-293T cells membrane incubated for 90 mins by scintillation counting method; assay type: cell membranes, Cell membrane
Histamine H3 receptor [3] = target: T1, Histamine H3 receptor; test: Displacement of bodilisant from recombinant human histamine H3 receptor stably transfected in HEK-293T cells membrane at 1 to 10 uM incubated for 60 mins by fluorescence-polarization assay; assay type: cell membranes; conditions: Cell membrane, dose 1-10 µM
Histamine H3 receptor [4] = target: T1, Histamine H3 receptor; test: Antagonist activity at human H3 receptor expressed in HEK293 cells assessed as reversion of (R)alpha-MeHA induced activity preincubated for 30 mins followed by [35S]-GTPgammaS addition and measured after 30 mins by liquid scintillation counting method; assay type: functional, cell-based; conditions: filed as antagonist, time 60.0 min
Histamine H3 receptor [5] = target: T1, Histamine H3 receptor; test: Antagonist activity at human H3 receptor expressed in CHO cells assessed as decrease in cAMP accumulation by measuring increase in forskolin level incubated for 4 hrs in presence of histamine by CRE/MRE-luciferase reporter gene assay; assay type: functional, cell-based
Histamine H3 receptor [6] = target: T1, Histamine H3 receptor; test: Agonist activity at human H3 receptor expressed in HEK293 cells preincubated for 30 mins followed by [35S]-GTPgammaS addition and measured after 30 mins by liquid scintillation counting method; assay type: functional, cell-based; conditions: time 60.0 min
Histamine H3 receptor [7] = target: T1, Histamine H3 receptor; test: Partial agonist activity at human H3 receptor stably transfected in CHO-DUKX cells assessed as […] by measuring reduction in forskolin level by HitHunter-cAMP assay relative to histamine; assay type: functional, cell-based

T1 sequence (Q9Y5N1 whole entry): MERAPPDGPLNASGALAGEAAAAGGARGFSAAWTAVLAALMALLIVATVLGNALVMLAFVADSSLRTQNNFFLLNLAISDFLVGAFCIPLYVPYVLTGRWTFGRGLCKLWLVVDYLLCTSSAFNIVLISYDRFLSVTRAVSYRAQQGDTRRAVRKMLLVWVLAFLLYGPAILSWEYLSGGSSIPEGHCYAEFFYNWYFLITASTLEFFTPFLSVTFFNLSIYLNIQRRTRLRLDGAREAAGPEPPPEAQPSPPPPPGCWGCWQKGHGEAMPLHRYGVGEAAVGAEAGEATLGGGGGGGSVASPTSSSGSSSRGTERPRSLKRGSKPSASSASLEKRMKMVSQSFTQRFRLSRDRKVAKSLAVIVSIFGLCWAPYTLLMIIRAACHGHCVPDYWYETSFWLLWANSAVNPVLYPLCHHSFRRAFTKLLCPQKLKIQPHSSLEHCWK

EC50 (Histamine H3 receptor [1]): 2.9 nM
Structure (SMILES): N=C(N)SCCc1cnc[nH]1 [IMETIT]

Kd (Histamine H3 receptor [2]): 1.9 nM
Structure (SMILES): CC1=CC(C)=[N+]2C1=C(c1ccc(OCCCN3CCCCC3)cc1)c1c(C)cc(C)n1[B-]2(F)F

Activity (Histamine H3 receptor [3]; filed as antagonist): Active
Structure (SMILES): Clc1ccc(CCCOCCCN2CCCCC2)cc1

Structure (SMILES): COc1cc(NC2(c3cccc(Cl)c3)C(=O)N(C(C)(C)C)C(=O)C2=Cc2ccccc2)cc(OC)c1OC (centres undefined)
Activity (Histamine H3 receptor [4]): Active
Activity (Histamine H3 receptor [3]): inactive
Activity (Histamine H3 receptor [5]): inactive
Activity (Histamine H3 receptor [6]): inactive
Ki (Histamine H3 receptor [2]): 3200 nM
Ratio (Histamine H3 receptor [7]): 0.14
